Values after ≈ are worked out from the molar mass of the structure shown.
Assays:
Assay type in all cases: cell-based
[1] = tested on: Corynebacterium striatum; experiment: GC/MS (SPME) analysis of volatile compounds of cultures, C. striatum; conditions: C. striatum culture, 37° C., 48 hours
Protocol: (§1) The four microorganisms were each cultured in a liquid medium comprising 1.6 g/l of KH2PO4, 5.0 g/l of (NH4)2HPO4, 0.38 g/l of Na2SO4, 3.35 g/l of yeast nitrogen base (difco), 0.5 g/l of yeast extract and 0.5 g/l of MgCl2.6H2O, 1.0 g/l of Tween 80, 1.0 g/l of valine, 1.0 g/l of leucine, 1.0 g/l of isoleucine and 1.0 g/l of methionine. Depending on the analyses to be carried out (profile of the odour by GC/MS or sensory evaluation), the various types of culture medium were prepared either in 2 ml of culture (high-throughput screening format in 96-well microtitration plates) or else 200 ml in Erlenmeyer flasks. For the GC/MS analyses, 2 ml of culture are sufficient but, for the sensory evaluation, for a panel of 12 people, the minimum amount of 200 ml of culture is necessary. […]
(§2) The strains were cultured aerobically at 37° C. for 48 hours. The magnitude of the growth was measured with the optical density (OD) at 600 nm. The cultures were subsequently analyzed for volatile odorous compounds by SPME-GC/MS. […]
(§3) In order to determine the relative amount of volatile compounds present in the culture medium, a solid phase microextraction (SPME; Supelco, USA), gas chromatography coupled with mass spectrometry (HS-SPME-GC/MS; Fisons, USA), is carried out. […] The mass spectra were recorded over an m/z range of 30-250. […]

[2] = tested on: Corynebacterium striatum; experiment: In vitro sensory evaluation of culture odour, C. striatum; conditions: petroselinic acid 0.05 g/l in culture medium, panel of 12 experts
Protocol: as §1, with “flasks.” for “flasks. For the GC/MS analyses, 2 ml of culture are sufficient but, for the sensory evaluation, for a panel of 12 people, the minimum amount of 200 ml of culture is necessary.”
as §2
(§4) For the sensory analysis, the minimum amount of 200 ml of culture medium is necessary for a panel of 12 experts. […] Before the sensory analysis, the cultures were sterilized by filtration and the filtrates were stored at 4° C. until analyzed. In a first phase, the profile of the odour was evaluated on the basis of the strongest odours by the sensory panel, with an intensity grade which varies from 1 to 4 (1—a little, 2—moderate, 3—strong and 4—very strong). […]

[3] = tested on: Corynebacterium mucifaciens; experiment: GC/MS (SPME) analysis of volatile compounds of cultures, C. mucifaciens; conditions: C. mucifaciens culture, 37° C., 48 hours
Protocol: as §1, §2, §3

[4] = tested on: Corynebacterium mucifaciens; experiment: In vitro sensory evaluation of culture odour, C. mucifaciens; conditions: petroselinic acid 0.05 g/l in culture medium, panel of 12 experts
Protocol: as §1, with “flasks.” for “flasks. For the GC/MS analyses, 2 ml of culture are sufficient but, for the sensory evaluation, for a panel of 12 people, the minimum amount of 200 ml of culture is necessary.”
as §2, §4

[5] = tested on: Staphylococcus epidermidis; experiment: GC/MS (SPME) analysis of volatile compounds of cultures, S. epidermidis; conditions: S. epidermidis culture, 37° C., 48 hours
Protocol: as §1, §2, §3

[6] = tested on: Staphylococcus epidermidis; experiment: In vitro sensory evaluation of culture odour, S. epidermidis; conditions: petroselinic acid 0.05 g/l in culture medium, panel of 12 experts
Protocol: as §1, with “flasks.” for “flasks. For the GC/MS analyses, 2 ml of culture are sufficient but, for the sensory evaluation, for a panel of 12 people, the minimum amount of 200 ml of culture is necessary.”
as §2, §4

[7] = tested on: Corynebacterium striatum; experiment: Minimum Inhibitory Concentration (MIC), C. striatum; conditions: LMG19648, read-out: Minimum Inhibitory Concentration (MIC) C. striatum
Description: (§5) The Minimum Inhibitory Concentration (MIC) on the microorganisms Corynebacterium striatum, Corynebacterium mucifaciens and Corynebacterium xerosis with the following active agents was compared.

[8] = tested on: Corynebacterium mucifaciens; experiment: Minimum Inhibitory Concentration (MIC), C. mucifaciens; conditions: LMG19067, read-out: Minimum Inhibitory Concentration (MIC) C. mucifaciens
Description: as §5

[9] = tested on: Corynebacterium xerosis; experiment: Minimum Inhibitory Concentration (MIC), C. xerosis; conditions: DSM20743, read-out: Minimum Inhibitory Concentration (MIC) C. xerosis
Description: as §5

[10] = acid added to culture medium (petroselinic 0.05, linolenic 0.5, myristic 0.005, azelaic 0.5 g/l)
[11] = petroselinic acid 0.05 g/l in culture medium

CCCCCCCCCCC/C=C\CCCCC(=O)O [Petroselinic acid]
amount of aldehydes [1, 10]: significant reduction
concentration of ketone compounds [1, 11]: greater concentration
description of the odour notes [2]: fresher notes with scents described as “green” and “putty”
resulting odour as perceived by the panel of experts [2]: more pleasant
aldehydes in the odour profile [3, 10]: noticeable reduction
concentration of ketone compounds [3, 11]: greater concentration
description of the scent [4]: scent described as “putty”
perception of the odour [4]: more pleasant
amount of aldehydes [5, 10]: significant reduction
concentration of ketone compounds [5, 11]: greater concentration
description of the odour notes [6]: fresher notes with scents described as “green” and “putty”
resulting odour as perceived by the panel of experts [6]: more pleasant

Oc1cc(Cl)ccc1Oc1ccc(Cl)cc1Cl [Triclosan, 2,4,4′-trichloro-2′-hydroxydiphenyl ether]
MIC [7]: 10 µg/mL (≈ 34.5 µM)
MIC [8]: 25 µg/mL (≈ 86.3 µM)
MIC [9]: 50 µg/mL (≈ 173 µM)
